{
  "source": "ChEMBL document CHEMBL2074333",
  "about": "“BPR0L075, a novel synthetic indole compound with antimitotic activity in human cancer cells, exerts effective antitumoral activity in vivo” (Cancer Res, 2004)",
  "key": {"[1]": {"target": "T1, ATP-dependent translocase ABCB1 (Homo sapiens, UniProt P08183)", "T1 sequence (P08183 whole entry)": "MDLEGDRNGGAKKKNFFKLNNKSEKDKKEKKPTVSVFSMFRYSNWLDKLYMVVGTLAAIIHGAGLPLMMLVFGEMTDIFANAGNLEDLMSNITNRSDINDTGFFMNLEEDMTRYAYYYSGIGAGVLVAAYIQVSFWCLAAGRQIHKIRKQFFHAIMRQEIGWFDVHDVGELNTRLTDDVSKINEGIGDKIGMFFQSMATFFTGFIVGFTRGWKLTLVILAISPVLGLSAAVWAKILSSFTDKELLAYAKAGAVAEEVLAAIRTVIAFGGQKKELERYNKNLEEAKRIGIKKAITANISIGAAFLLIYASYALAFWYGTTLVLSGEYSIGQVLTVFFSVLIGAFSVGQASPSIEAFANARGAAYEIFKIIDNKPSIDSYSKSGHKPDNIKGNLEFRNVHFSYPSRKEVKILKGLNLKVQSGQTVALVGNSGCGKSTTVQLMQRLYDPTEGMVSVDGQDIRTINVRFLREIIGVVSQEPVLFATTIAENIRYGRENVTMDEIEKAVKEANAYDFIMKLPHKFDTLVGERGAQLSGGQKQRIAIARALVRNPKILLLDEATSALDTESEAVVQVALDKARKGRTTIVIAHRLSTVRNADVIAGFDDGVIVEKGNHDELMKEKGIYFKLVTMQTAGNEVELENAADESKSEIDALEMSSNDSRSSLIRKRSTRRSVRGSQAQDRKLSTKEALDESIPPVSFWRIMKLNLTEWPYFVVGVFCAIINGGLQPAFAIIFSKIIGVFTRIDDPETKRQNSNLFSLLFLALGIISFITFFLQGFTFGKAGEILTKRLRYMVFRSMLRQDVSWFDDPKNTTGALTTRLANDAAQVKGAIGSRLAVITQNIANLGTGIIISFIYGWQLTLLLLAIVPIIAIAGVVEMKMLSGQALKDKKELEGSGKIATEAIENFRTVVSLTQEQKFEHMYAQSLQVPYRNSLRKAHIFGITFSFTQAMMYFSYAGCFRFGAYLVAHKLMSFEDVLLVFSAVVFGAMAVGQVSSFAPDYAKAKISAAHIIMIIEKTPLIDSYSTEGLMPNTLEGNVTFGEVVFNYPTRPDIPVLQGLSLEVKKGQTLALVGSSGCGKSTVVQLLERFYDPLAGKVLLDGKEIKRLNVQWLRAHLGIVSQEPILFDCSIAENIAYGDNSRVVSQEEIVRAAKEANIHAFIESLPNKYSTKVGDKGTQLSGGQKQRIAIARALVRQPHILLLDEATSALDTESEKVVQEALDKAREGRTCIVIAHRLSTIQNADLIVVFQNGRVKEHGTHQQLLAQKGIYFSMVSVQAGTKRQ", "assay": "TP_TRANSPORTER: drug resistance in KB-TAX50 cells", "format": "functional, cell-based"}, "[2]": {"target": "T1, ATP-dependent translocase ABCB1", "assay": "TP_TRANSPORTER: drug resistance in KB-VIN10 cells", "format": "functional, cell-based"}},
  "data": [
    {"molecule": "CC[C@]1(O)C[C@H]2CN(CCc3c([nH]c4ccccc34)[C@@](C(=O)OC)(c3cc4c(cc3OC)N(C=O)[C@H]3[C@@](O)(C(=O)OC)[C@H](OC(C)=O)[C@]5(CC)C=CCN6CC[C@]43[C@@H]65)C2)C1", "note": "[VINCRISTINE]", "values": [
      {"measurement": "Activity", "setting": "[1]", "value": "substrate [+]"},
      {"measurement": "Activity", "setting": "[2]", "value": "substrate [+]"}
    ]},
    {"molecule": "CC(=O)O[C@H]1C(=O)[C@@]2(C)[C@H]([C@H](OC(=O)c3ccccc3)[C@]3(O)C[C@H](OC(=O)[C@H](O)[C@@H](NC(=O)c4ccccc4)c4ccccc4)C(C)=C1C3(C)C)[C@]1(OC(C)=O)CO[C@@H]1C[C@@H]2O", "note": "[PACLITAXEL]", "values": [
      {"measurement": "Activity", "setting": "[1]", "value": "substrate [+]"},
      {"measurement": "Activity", "setting": "[2]", "value": "substrate [+]"}
    ]},
    {"molecule": "COc1cc2c(c(OC)c1OC)-c1ccc(OC)c(=O)cc1[C@@H](NC(C)=O)CC2", "note": "[COLCHICINE]", "values": [
      {"measurement": "Activity", "setting": "[1]", "value": "substrate [+]"},
      {"measurement": "Activity", "setting": "[2]", "value": "substrate [+]"}
    ]},
    {"molecule": "COc1ccc2c(C(=O)c3cc(OC)c(OC)c(OC)c3)c[nH]c2c1", "values": [
      {"measurement": "Activity", "setting": "[1]", "value": "is not a substrate [-]"},
      {"measurement": "Activity", "setting": "[2]", "value": "is not a substrate [-]"}
    ]}
  ]
}
